Measured values from patent US20200131227A1, “POLYPEPTIDE WITH TUMOUR BINDING ACTIVITY” (RUPRECHT-KARLS-UNIVERSITÄT HEIDELBERG, priority 2017, published 2020).
Where “and” joins values, the source holds several entries; their conditions need not be identical. Equal entries are not always repeated. *1 amine or outer side, *2 acyl side, *3 side chain or, on linkers, in order; H or OH if unused. Bridges are numbered along the chain shown (N, C = ends). Roman numbers before positions name the chains, in order. Where no end group is shown, it is not given here. [ ]: non-standard residue; d: D form. The star is where a group is joined. ξ: configuration not given here. DOTA = O=C(O)CN1CCN(CC(=O)O)CCN(CC(=O)*)CCN(CC(=O)O)CC1; 125I = iodine-125 label on tyrosine, [125I]*; X1 = O=C(CO/N=C/C(=O)[*:2])[*:1]; ξK = NCCCCC(N)C(=O)O; ξS = NC(CO)C(=O)O

Legend:
UM-UC-5 cells = assay: In vitro binding on UM-UC-5 cells; type: cell-based, human; conditions: 60 min; percent applied dose/10^6 cells
Description: (§1) For binding studies, 2.5×10^5 to 4×10^5 cells were seeded in 6-well plates and cultivated for 48 hours. Cells were incubated for 60 min with 1 mL serum-free medium containing the ^125I-labeled peptide (see above). For competition experiments, cells were simultaneously exposed to unlabeled (10^-4 M to 10^-10 M) and ^125I-labeled peptides. After three washing steps with PBS (pH 7.4) the cells were lysed with 0.5 mL of 0.3 M NaOH. Experiments concerning the internalization, kinetics and efflux were additionally performed with ^177Lu-DOTA-SFITGv6. To evaluate kinetics and efflux HNO97 cells were incubated for different time intervals (10 min to 480 min) and 60 min, respectively, with ^177Lu-DOTA-SFITGv6 and lysed as described. To continue with the efflux experiment radioactive medium was replaced by non-radioactive medium and cells were incubated again for 60 to 240 min before measuring radioactivity of the cell lysates and the medium. For internalization experiments the cells were exposed to ^177Lu-DOTA-SFITGv6 for different time intervals (10 to 240 min) at 37° C. and 4° C. After three washing steps with PBS the cells were incubated with 1 mL of glycine-HCl 50 mmol/L in PBS (pH 2.8) for 10 min at RT to remove the surface bound activity. […] Radioactivity was determined in a gamma counter and calculated as percentage of the applied dose per 1×10^6 cells. […]

HNO258 cells = assay: In vitro binding on HNO258 cells; type: cell-based, human; conditions: 60 min; percent applied dose/10^6 cells
Description: as §1

HNO97 cells = assay: In vitro binding, kinetics, internalization and efflux on HNO97 cells; type: cell-based, human
Description: (§2) For binding studies, 2.5×10^5 to 4×10^5 cells were seeded in 6-well plates and cultivated for 48 hours. Cells were incubated for 60 min with 1 mL serum-free medium containing the ^125I-labeled peptide (see above). For competition experiments, cells were simultaneously exposed to unlabeled (10^-4 M to 10^-10 M) and ^125I-labeled peptides. After three washing steps with PBS (pH 7.4) the cells were lysed with 0.5 mL of 0.3 M NaOH. Experiments concerning the internalization, kinetics and efflux were additionally performed with ^177Lu-DOTA-SFITGv6. To evaluate kinetics and efflux HNO97 cells were incubated for different time intervals (10 min to 480 min) and 60 min, respectively, with ^177Lu-DOTA-SFITGv6 and lysed as described. To continue with the efflux experiment radioactive medium was replaced by non-radioactive medium and cells were incubated again for 60 to 240 min before measuring radioactivity of the cell lysates and the medium. For internalization experiments the cells were exposed to ^177Lu-DOTA-SFITGv6 for different time intervals (10 to 240 min) at 37° C. and 4° C. After three washing steps with PBS the cells were incubated with 1 mL of glycine-HCl 50 mmol/L in PBS (pH 2.8) for 10 min at RT to remove the surface bound activity. Then, cells were washed with 3 mL of ice-cold PBS and lysed as described. Radioactivity was determined in a gamma counter and calculated as percentage of the applied dose per 1×10^6 cells. Experiments were performed three times, and three repetitions per independent experiment were acquired.
(§3) For the assessment of the peptide binding capacity in vitro, 2.5-4×10^5 cells were seeded into 6-well plates and cultivated for 48 h. ^125I-labeled peptide resuspended in 1 mL serum-free medium was added and incubated for either 10 min or 60 min with or without different concentrations of unlabeled peptide (10^−4-10^−11 M). Afterwards, cell monolayers were washed three times with 1 mL phosphate-buffered saline (pH 7.4) to remove unbound peptide and the cells were harvested with 1.4 mL lysis buffer (0.3 M NaOH). To evaluate kinetic properties the cells were exposed to ^177Lu-DOTA-labeled peptides for 10, 30, 60, 120, and 240 min, respectively, and lysed as described. For the efflux experiments the cells were incubated with ^177Lu-DOTA-labeled peptides for 60 min. Thereafter, radioactive medium was replaced by non-radioactive medium and cell monolayers were incubated for additional 60, 120, and 240 min and afterwards lysed as described earlier. The internalization was assessed after exposure of the cells to ^177Lu-DOTA-labeled peptides for 10, 30, 60, 120, and 240 min at 37° C. Unspecifically bound peptide was removed from the surface by incubation with 1 M glycine-HCl solution (pH 2.2) for 10 min. The monolayer cell was rinsed with PBS and cells were lysed as described before. Radioactivity was determined in a y-counter and calculated as percentage of the applied dose per 1×10^6 cells. Experiments were performed three times, and three repetitions per independent experiment were acquired.

HT29 cells = assay: In vitro binding on HT29 cells; type: cell-based, human; conditions: 60 min; percent applied dose/10^6 cells
Description: as §1

[1] = Serum stability assay (radio-HPLC); type: in vitro ADME, human
Description: Five MBq of the purified ^131I-radiolabeled peptide was incubated in 300 μL human serum at 37° C. After different time intervals (15 min to 24 hours) 20 μL serum was precipitated with 40 μL acetonitrile. The stability of the labeled peptide in the supernatant was monitored by radio-HPLC at selected time points using a chromolith performance RP18ec column (3 mm×100 mm) equipped with a gamma detector (Packard COBRA™ Auto-Gamma, GMI). Separation condition was a gradient of 0% to 60% aqueous acetonitrile supplemented with 0.1% TFA over 10 min with a flow rate of 2 mL/min.

HNO210 cells = assay: In vitro binding on HNO210 cells; type: cell-based, human; conditions: 60 min; percent applied dose/10^6 cells
Description: For binding studies, 2.5×10^5 to 4×10^5 cells were seeded in 6-well plates and cultivated for 48 hours. Cells were incubated for 60 min with 1 mL serum-free medium containing the ^125I-labeled peptide (see above). For competition experiments, cells were simultaneously exposed to unlabeled (10^-4 M to 10^-10 M) and ^125I-labeled peptides. After three washing steps with PBS (pH 7.4) the cells were lysed with 0.5 mL of 0.3 M NaOH. Experiments concerning the internalization, kinetics and efflux were additionally performed with ^177Lu-DOTA-SFITGv6. […] To continue with the efflux experiment radioactive medium was replaced by non-radioactive medium and cells were incubated again for 60 to 240 min before measuring radioactivity of the cell lysates and the medium. […] Radioactivity was determined in a gamma counter and calculated as percentage of the applied dose per 1×10^6 cells. […]
For the assessment of the peptide binding capacity in vitro, 2.5-4×10^5 cells were seeded into 6-well plates and cultivated for 48 h. ^125I-labeled peptide resuspended in 1 mL serum-free medium was added and incubated for either 10 min or 60 min with or without different concentrations of unlabeled peptide (10^−4-10^−11 M). […] The internalization was assessed after exposure of the cells to ^177Lu-DOTA-labeled peptides for 10, 30, 60, 120, and 240 min at 37° C. […]

HNO399 cells = assay: In vitro binding on HNO399 cells; type: cell-based, human; conditions: 60 min; percent applied dose/10^6 cells
Description: as §3, with “To evaluate kinetic properties the cells were exposed to ^177Lu-DOTA-labeled peptides for 10, 30, 60, 120, and 240 min, respectively, and lysed as described.” left out, “The internalization was assessed after exposure of the cells to ^177Lu-DOTA-labeled peptides for 10, 30, 60, 120, and 240 min at 37° C.” left out

carcinoma cell lines = assay: In vitro binding of radiolabeled peptides to several carcinoma cell lines; type: cell-based, human; conditions: for binding of ^125I-labeled peptide with unlabeled peptide as competitor: co-incubation with 10^-6 M unlabeled peptide, 60 min, all cell lines tested
Description: as §2, §3

LUDLU-1 cells = assay: In vitro binding on LUDLU-1 cells; type: cell-based, human; conditions: 60 min; percent applied dose/10^6 cells
Description: as §1

MCF-7 cells = assay: In vitro binding on MCF-7 cells; type: cell-based, human; conditions: 60 min; percent applied dose/10^6 cells
Description: as §1

Q: Which IC50 (Capan-2 cells) does the source give for “I: GRCTGRGDLGRLCYPD-NH2 / II: GRCTGRGDLGRLCYPD-NH2 / III: GRCTGRGDLGRLCYPD-NH2 / IV: {DOTA}-G[ξS]G[ξS][ξK]G[ξS]G[ξS][ξK]G[ξS]G[ξS][ξK]-NH2 (disulfide I:3-I:13, II:3-II:13, III:3-III:13; linker I:N-IV:15, II:N-IV:10, III:N-IV:5 via X1) [^125I-DOTA-SFLAP3-trimer]” here?
A: 0.76 nM

Q: With “^125I-SFITGv6: ^125I-labeled SFITGv6 (GRCTFRGDLMQLCY(125I)PD; disulfide 3-13)” as the substance, how does the “binding of ^125I-labeled peptide” value (UM-UC-5 cells) read?
A: 10.4%

Q: What about the “binding of ^125I-labeled peptide” value (HNO258 cells) of the same substance?
A: 3.5%

Q: What about the “retention of radioactivity in cells (efflux experiment)” value (HNO97 cells; 240 min after termination of the uptake (1 h exposure), of originally accumulated activity) of the same substance?
A: less than 5%

Q: And the “maximal uptake of ^125I-labeled peptide (kinetics)” value (HNO97 cells; after exposure for 60 min)?
A: 37.3%

Q: What about the “internalization of ^125I-labeled peptide after decrease” value (HNO97 cells; decrease following the 60 min maximum) of the same substance?
A: 12.6%

Q: And the “maximal internalization of ^125I-labeled peptide” value (HNO97 cells; within 60 min)?
A: up to 24.1%

Q: And the “binding of ^125I-labeled peptide” value (HT29 cells)?
A: 2.8%

Q: And the “proteolytic stability in human serum” value [1]?
A: no degradation over a 24 hours

Q: What about the “binding of ^125I-labeled peptide” value (HNO210 cells) of the same substance?
A: 7.1% and 10.5%

Q: And the “binding of ^125I-labeled peptide” value (HNO399 cells)?
A: 9.8%

Q: What about the “competition of binding by non-radioactively labeled counterpart” value (carcinoma cell lines; 10^−6 M competitor, all tested HNSCC cell lines) of the same substance?
A: almost completely competed

Q: And the “competition of binding by unlabeled analog” value (carcinoma cell lines; 10^−6 M unlabeled analog)?
A: more than 90%

Q: And the “average specific binding of ^125I-labeled peptide” value (carcinoma cell lines; HNO97, other HNSCC, lung, bladder and colon carcinoma cell lines)?
A: 7%

Q: And the “binding of ^125I-labeled peptide with unlabeled peptide as competitor” value (carcinoma cell lines)?
A: below 1 % of the applied dose

Q: What about the “binding of ^125I-labeled peptide” value (LUDLU-1 cells) of the same substance?
A: 4.3%

Q: Which “binding of ^125I-labeled peptide” value (UM-UC-5 cells) does the source give for “^125I-SFPF-10: ^125I-labeled peptide SFPF-10 (GRCTFRGDKMQLCY(125I)PD; disulfide 3-13 (inferred))” here?
A: 7.5%

Q: What about the “binding of ^125I-labeled peptide” value (HNO258 cells) of the same substance?
A: 2.6%

Q: What about the “maximal uptake of ^125I-labeled peptide (kinetics)” value (HNO97 cells; after exposure for 120 min) of the same substance?
A: 12.6%

Q: What about the “uptake of ^125I-labeled peptide after decrease (kinetics)” value (HNO97 cells; decrease following the 120 min maximum) of the same substance?
A: 6.7%

Q: And the “binding of ^125I-labeled peptide” value (MCF-7 cells)?
A: 1.6%

Q: What about the “binding of ^125I-labeled peptide with unlabeled peptide as competitor” value (carcinoma cell lines) of the same substance?
A: below 1 % of the applied dose
